These results are taken from publication PMC1940322, “The Effect of PPARα, PPARδ, PPARγ, and PPARpan Agonists on Body Weight, Body Mass, and Serum Lipid Profiles in Diet-Induced Obese AKR/J Mice” (PPAR Research, 2007).

In test [1] the target is T1, murine PPARα (Mus musculus, UniProt P23204).
T1 construct: expressed in transfected cells; host or cells: CV-1 cells
T1 sequence (P23204 239-466 limits assumed): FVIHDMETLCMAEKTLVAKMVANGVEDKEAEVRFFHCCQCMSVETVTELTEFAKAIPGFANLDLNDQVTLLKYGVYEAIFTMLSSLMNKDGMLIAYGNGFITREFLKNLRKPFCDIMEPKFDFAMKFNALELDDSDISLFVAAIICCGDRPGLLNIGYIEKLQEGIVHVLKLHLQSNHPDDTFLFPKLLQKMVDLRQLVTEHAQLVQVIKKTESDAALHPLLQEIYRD
As to the kind of experiment: PPAR-GAL4 transient transfection transactivation assay (SPAP reporter) in CV-1 cells, PPARα. Conditions: for EC50: CV-1 cells, GAL4 chimera, read-out: mPPARα, murine receptor activation EC50; for mPPARα %Max: maximal activation vs reference comparator. The test is classed as cell-based. The protocol:
The functional potency of selected ligands was evaluated using a transient transfection assay in CV-1 cells. The ligand binding domains for murine PPARα, PPARδ, and PPARγ were fused to the yeast transcription factor GAL4 DNA binding domain as a chimera. CV-1 cells were propagated and transiently transfected with expression vectors for the respective PPAR chimera as previously described. Test compounds were compared to reference comparators that give maximum responses in this assay. Compounds which produced an activation of at 70% or greater, compared to a positive control, were considered full agonists.

Test [2] deals with diet-induced obese (DIO) AKR/J mouse. The test can be described thus: Serum clinical chemistry of terminal blood samples, DIO AKR/J mice. The test is classed as in vivo. Conditions: for Cholesterol / Glucose / HDL-C / Insulin / NEFA / Triglyceride / bHBA: serum, end of treatment, 28 days; for effect on serum chemistry (in words): terminal serum after 28 days. The method, then:
On the final day of each experiment, a terminal blood sample (800–1000 μL) was obtained via cardiac puncture under isoflurane anesthesia. Whole blood was placed in a Terumo Capiject blood collection tube (Terumo Medical Corp., Elkton, Md, USA), allowed to sit at room temperature for 20 minutes then centrifuged to obtain serum. Serum levels of glucose, triglycerides, glycerol, nonesterified fatty acids, total cholesterol, the high-density lipoprotein cholesterol, and β-hydroxybutyrate were determined in all mice using an Olympus AU640 clinical chemistry immuno-analyzer (Olympus America Inc., Melville, NY, USA). In addition, liver weights were obtained following the terminal blood sample on the final day of the study and samples were used to determine liver fatty acid oxidation activity.

Test [3] has as its target T2, murine PPARγ (Mus musculus, UniProt P37238).
T2 construct: expressed in transfected cells; host or cells: CV-1 cells
T2 sequence (P37238 238-503 limits assumed): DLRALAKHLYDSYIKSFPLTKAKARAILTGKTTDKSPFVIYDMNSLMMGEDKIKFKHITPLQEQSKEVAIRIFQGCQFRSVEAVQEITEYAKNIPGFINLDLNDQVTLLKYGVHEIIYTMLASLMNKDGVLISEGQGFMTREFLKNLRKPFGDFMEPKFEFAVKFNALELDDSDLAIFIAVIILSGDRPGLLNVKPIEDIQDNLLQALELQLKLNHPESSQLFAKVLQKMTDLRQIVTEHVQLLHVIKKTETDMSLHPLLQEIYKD
The test can be described thus: PPAR-GAL4 transient transfection transactivation assay (SPAP reporter) in CV-1 cells, PPARγ. The class given is cell-based. The following applies: for EC50: CV-1 cells, GAL4 chimera, read-out: mPPARγ, murine receptor activation EC50; for mPPARγ %Max: maximal activation vs reference comparator. The method, then: (§1) The functional potency of selected ligands was evaluated using a transient transfection assay in CV-1 cells. The ligand binding domains for murine PPARα, PPARδ, and PPARγ were fused to the yeast transcription factor GAL4 DNA binding domain as a chimera. CV-1 cells were propagated and transiently transfected with expression vectors for the respective PPAR chimera as previously described.

The target in test [4] is T3, murine PPARδ (Mus musculus, UniProt P35396).
T3 construct: expressed in transfected cells; host or cells: CV-1 cells
T3 sequence (P35396 210-438 limits assumed): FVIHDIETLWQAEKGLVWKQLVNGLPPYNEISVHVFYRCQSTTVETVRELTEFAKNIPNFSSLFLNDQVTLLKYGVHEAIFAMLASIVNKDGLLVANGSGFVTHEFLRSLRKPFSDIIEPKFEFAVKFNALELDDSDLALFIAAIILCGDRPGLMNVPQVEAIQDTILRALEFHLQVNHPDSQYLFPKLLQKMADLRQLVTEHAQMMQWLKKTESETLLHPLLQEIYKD
As to the kind of experiment: PPAR-GAL4 transient transfection transactivation assay (SPAP reporter) in CV-1 cells, PPARδ. The class given is cell-based. The protocol: as §1

Several values for one entry are separate records, joined by “and”; a condition that tells them apart may be missing. Identical values can stand only once.

The term EC50 denotes the midpoint of the concentration-response curve. As for `Cc1cc(SCc2sc(-c3ccc(C(F)(F)F)c(F)c3)nc2C)ccc1OCC(=O)O` [GW0742], in test [1], the EC50 came out at 8.81 µM and the “mPPARα %Max” value was 55%. In test [2] (30 mg/kg oral), this compound yielded a Cholesterol of 171.9 ± 2.9 mg/dL, a Glucose of 253.3 ± 8.9 mg/dL, an HDL-C of 118.4 ± 1.6 mg/dL and an Insulin of 2.2 ± 1.2 ng/mL. In test [2] (30 mg/kg oral), this compound registered an NEFA of 0.9 ± 0.02 mEq/L, a Triglyceride of 174.9 ± 10.3 mg/dL and a bHBA of 3.8 ± 0.3 mg/dL. For the same compound, in test [2], the “effect on serum chemistry (in words)” value is “significantly reduced circulating insulin (INS) levels”. Besides, in test [3], the half-maximal effective concentration (EC50) was 10 µM and the “mPPARγ %Max” value came to 67%.
Turning to `CCCCCCCN(CCc1ccc(SC(C)(C)C(=O)O)cc1)C(=O)Nc1ccc(F)cc1F` [GW9578], in test [1], the EC50 was 0.008 µM and 0.0081 µM; the “mPPARα %Max” value worked out at 95%. Further, the “selectivity for PPARα over PPARγ and PPARδ” value in test [1] (murine receptors) was over 250 fold. In test [2] (1 mg/kg oral), this compound came in with a Cholesterol of 117.1 ± 4.1 mg/dL, a Glucose of 248.0 ± 16.6 mg/dL, an HDL-C of 86.6 ± 2.7 mg/dL and an Insulin of 3.1 ± 1.6 ng/mL. In test [2] (1 mg/kg oral), the NEFA is on record as 0.9 ± 0.04 mEq/L, the Triglyceride was 168.3 ± 15.4 mg/dL and the bHBA is listed as 3.2 ± 1.1 mg/dL. Besides, the “effect on serum chemistry (in words)” value in test [2] is listed as “significantly reduced circulating insulin (INS) levels”. Moreover, in test [3], the EC50 worked out at 2.82 µM and the “mPPARγ %Max” value was 96%.
Take `COC(=O)c1ccccc1N[C@@H](Cc1ccc(OCCc2nc(-c3ccccc3)oc2C)cc1)C(=O)O` [GW7845]: in test [1], the 50% effective concentration (EC50) came to 10.8 µM and the “mPPARα %Max” value is 30%. Besides, in test [2] (3 mg/kg oral), the Cholesterol stood at 106.1 ± 4.2 mg/dL, the Glucose is 222.3 ± 9.4 mg/dL, the HDL-C was 65.0 ± 0.9 mg/dL and the Insulin was 2.1 ± 0.4 ng/mL. Moreover, in test [2] (3 mg/kg oral), the NEFA came out at 0.6 ± 0.03 mEq/L, the Triglyceride is 112.3 ± 5.7 mg/dL and the bHBA was determined as 1.5 ± 0.1 mg/dL. The “effect on serum chemistry (in words)” value in test [2] is “significant reduction in circulating INS, TG, and NEFA levels”. In test [3], the EC50 was determined as 0.0012 µM and the “mPPARγ %Max” value worked out at 247%. Besides, the “selectivity for PPARγ over the other murine PPAR subtypes” value in test [3] (murine receptors) is recorded as over 1000 fold. Further, in test [4] (CV-1 cells, GAL4 chimera, read-out: mPPARδ, murine receptor activation EC50), the EC50 is 10 µM. Further, the “mPPARδ %Max” value in test [4] (maximal activation vs reference comparator) is recorded as 12%.
